Read-outs that look alike come from different tables or passages of the source.
Experiments:
SKBR3 cells = experiment: In vitro cytotoxicity, ATPlite luminescence assay; format: cell-based; settings: Homo sapiens, SK-BR-3; SKBR3 (HER2+), 24 h treatment + 24 h fresh medium, µM in DXR
Method: (§1) For cytotoxicity experiments, four human cancer cell lines were used, that is, three HER2+ BT474 (ATCC HTB‐20), SKBR3 (ATCC HTB‐ 30) and SKOV3 (ATCC HTB‐77), and the HER2‐ MDA‐MB‐231 (ATCC HTB‐26). Cells were maintained in DMEM medium supplemented with 10% fetal bovine serum (FBS), 1% glutamine, 1% penicillin‐streptomycin, in humidified conditions at 37 °C with 5% CO2.
(§2) The cytotoxic effect of formulations was evaluated on HER2+ (BT474, SKBR3, and SKOV3) and HER2‐ (MDA‐MB‐231) cell lines by means of the ATPlite Luminescence ATP Detection Assay System. The cytotoxic effect of targeted DXR‐loaded liposomal formulations was compared to that of non‐targeted DXR‐loaded liposomes and free DXR (positive control). Cells treated only with the medium were used as control. Briefly, the cells were seeded in black 96‐well plates at a density of 5000 cells/well (SKBR3, SKOV3, and MDA‐MB‐231) and 7500 cells/well (BT474). After 24 h, cells were treated with increasing concentrations of the liposomal formulations (0.01–50 µM in DXR, n = 7) for 24 (SKBR3, SKOV3, and MDA‐MB‐231) or 48 (BT474) h. At the end of the exposure, treatments were replaced by fresh complete medium for 24 h. To quantify ATP production, cells were treated following the manufacturer's instructions, and luminescence was quantified by means of a Victor Nivo multi‐plate reader (PerkinElmer, Waltham, MA, USA). The percentage of cell viability was determined as (luminescencetreated cells/luminescencecontrol cells) × 100. IC50 values were calculated using GraphPad Prism 9.0 (San Diego, CA, USA) by a nonlinear regression model.

BT474 cells = experiment: In vitro cytotoxicity, ATPlite luminescence assay; format: cell-based; settings: Homo sapiens, BT-474; BT474 (HER2+), 48 h treatment + 24 h fresh medium, µM in DXR
Method: as §1, §2

SKOV3 cells = experiment: In vitro cytotoxicity, ATPlite luminescence assay; format: cell-based; settings: Homo sapiens, SK-OV-3; SKOV3 (HER2+), 24 h treatment + 24 h fresh medium, µM in DXR
Method: as §1, §2

[1] = Pharmacokinetic study in rats; format: in vivo, Sprague Dawley rats; settings: 2.5 mg kg^−1 in DXR i.v.; for half-life: female, Sprague Dawley, rat, plasma, iv, 2.5 mg/kg, bicompartmental model
Method: DXR was extracted by treating 50 µL of plasma with 10 µL of 1 M Triton X‐100 and 580 µL of 81 mM HCl in isopropanol to allow plasma proteins precipitation. After overnight incubation at 4 °C, samples were centrifuged for 3 min × 3000 rpm and the supernatants were analyzed using an FP‐6500 Jasco spectrofluorometer (λ ex = 470 nm; λ em = 584 nm). DXR concentration in each plasma sample was extrapolated through a calibration curve of standard solutions of either DXR or DXR‐loaded SL for the liposomal formulations. The pharmacokinetic analysis was performed using the PKSolver 2.0 software by applying a bicompartmental model.

[2] = Toxicological study in rats (blood count, plasma biochemistry, histology); format: in vivo, Sprague Dawley rats
Excerpt: The study protocol was approved by the Ethics Committee of the University of Padova and the Italian Ministry of Health (Prot. No. 938/2016‐PR obtained on October 10, 2016), and animals were handled in compliance with national and international guidelines, that is, the Italian Legislative Decree 26/2014 and the “Guide for the Care and Use of Laboratory Animals” by the National Research Council of the National Academies. Female Sprague Dawley rats (140–190 g) were randomly divided into groups of 6 rats each. A dose of 2.5 mg kg^−1 in DXR of either free drug or DXR‐loaded liposomal formulations (SL, SIL, SSIL2) was administered via tail vein to the rats previously anesthetized with isoflurane gas (mixed with O2 in enclosed cages). At scheduled time points, blood samples (≈200 µL) were collected from the tail into heparin‐treated tubes and thereafter immediately centrifuged 15 min × 1500 × g to separate plasma. Rats were euthanized with isoflurane anesthesia 48 h after administration and the blood was collected with an intracardiac puncture to measure complete blood count and plasma biochemistry. These measurements were performed by means of standard laboratory tests.^[ [27] ^] After sacrifice, the main organs (liver, spleen, lungs, kidneys, heart, brain, ovaries) were collected, weighed, washed with saline solution, and frozen in liquid nitrogen. An appropriate amount of each organ was placed in formalin for histological analysis.^[ [28] ^]

Q: What does the source list for `COc1cccc2c1C(=O)c1c(O)c3c(c(O)c1C2=O)C[C@@](O)(C(=O)CO)C[C@@H]3O[C@H]1C[C@H](N)[C@H](O)[C@H](C)O1` [DXR, Doxorubicin]?
A: IC50 (SKBR3 cells): 0.034 ± 0.026 µM; IC50 (BT474 cells): 0.08 ± 0.003 µM; IC50 (SKOV3 cells): 0.092 ± 0.004 µM; AUC0‐inf [1]: 60 ± 31 ng·h/mL; half-life ([1]; read-out: t 1/2 alpha (converted)): 34.4 ± 21.6 min; half-life ([1]; read-out: t 1/2 beta (converted)): 79.1 ± 48.7 min; Anemia (red blood cells, hemoglobin, hematocrit decreased versus controls) ([2]; 2.5 mg kg^−1 in DXR i.v., 48 h): anemic; Erythrocytes (RBCs) ([2]; 2.5 mg kg^−1 in DXR i.v., 48 h): 4.61e+12 L⁻¹; Hematocrit ([2]; 2.5 mg kg^−1 in DXR i.v., 48 h): 0.286 L/L; Hemoglobin ([2]; 2.5 mg kg^−1 in DXR i.v., 48 h): 93 ± 10 g/L; Liver histology ([2]; 2.5 mg kg^−1 in DXR i.v., 48 h): small and isolated granulomatous lesion; MCH ([2]; 2.5 mg kg^−1 in DXR i.v., 48 h): 20.3 ± 0.4 pg; MCHC ([2]; 2.5 mg kg^−1 in DXR i.v., 48 h): 329 ± 20 g/L; MCV ([2]; 2.5 mg kg^−1 in DXR i.v., 48 h): 61.8 ± 2.9 fL; Platelets (PLTs) ([2]; 2.5 mg kg^−1 in DXR i.v., 48 h): 811 ± 402 x109/L; RDW ([2]; 2.5 mg kg^−1 in DXR i.v., 48 h): 11.8 ± 0.5%; Spleen histology ([2]; 2.5 mg kg^−1 in DXR i.v., 48 h): slight increased hematopoiesis; Leukocytes (WBCs) ([2]; 2.5 mg kg^−1 in DXR i.v., 48 h after administration): 2.05 ± 1.15 x109/L; Glucose ([2]; plasma biochemistry, 2.5 mg kg^−1 in DXR i.v., 48 h): 10.7 ± 0.8 mmol/L; ALP ([2]; plasma biochemistry, 48 h): 143 ± 36 U/L; ALT ([2]; plasma biochemistry, 48 h): 20 ± 6 U/L; AST ([2]; plasma biochemistry, 48 h): 78 ± 16 U/L; Albumin ([2]; plasma biochemistry, 48 h): 42 ± 3 g/L; Calcium ([2]; plasma biochemistry, 48 h): 2.67 ± 0.09 mmol/L; Chloride ([2]; plasma biochemistry, 48 h): 102 ± 2 mmol/L; Creatinine ([2]; plasma biochemistry, 48 h): 16 ± 2 µM; Direct bilirubin ([2]; plasma biochemistry, 48 h): 0.3 ± 0.2 µM; Inorganic Phosphorous ([2]; plasma biochemistry, 48 h): 2.45 ± 0.16 mmol/L; Potassium ([2]; plasma biochemistry, 48 h): 3.9 ± 0.4 mmol/L; Sodium ([2]; plasma biochemistry, 48 h): 142 ± 1 mmol/L; Total bilirubin ([2]; plasma biochemistry, 48 h): 0.4 ± 0.2 µM; Total cholesterol ([2]; plasma biochemistry, 48 h): 64 ± 9 mg/dL; Triglycerides ([2]; plasma biochemistry, 48 h): 64 ± 37 mg/dL; Urea ([2]; plasma biochemistry, 48 h): 4.7 ± 0.2 mmol/L
